Assay results taken from PMC8584424, “Synthesis of Novel 2-Thiouracil-5-Sulfonamide Derivatives as Potent Inducers of Cell Cycle Arrest and CDK2A Inhibition Supported by Molecular Docking” (International Journal of Molecular Sciences, 2021).

What was measured:
[1] = tested on: MCF-7 (breast) cancer cells; assay: In vitro cytotoxicity assessment (MTT), MCF-7; assay type: cell-based, human; conditions: for IC50: Homo sapiens, MCF7, 48 h, MTT, mean of three experiments ± SD, NA: not active; for SI (selectivity index) MCF-7: IC50 in WI38 normal cells / IC50 in MCF-7
Description: (§1) Four cancer cell lines were used in this study viz ovarian (A-2780), colon (HT-29), breast (MCF-7), and liver (HepG2) cancer cells. They were provided by the National Institute of Cancer, Cairo University (Cairo, Egypt). The selection of those cancer cells was encouraged by the stated anticancer activity of a number 5-Fluorouracil hybrids against the mentioned cancer cells and based on the reported cytotoxic activity of a large range of bioactive cores containing sulfonamide moiety.
(§2) Cells were seeded in 96 well plates at a density of 2 × 10^4 and incubated to allow the attachment for 24 h. Then the cells were treated at different concentrations (2.5–10 μM) with 5-FU as a positive control or the synthesized compounds for 48h. 0.1% DMSO was used as a negative control. Afterward, cells were washed using PBS and the viability of cells was evaluated utilizing in vitro toxicology assay kit, MTT Based (Stock No. TOX-1, Sigma-Aldrich, Saint Louis, Missouri, USA), per the manufacturer’s instructions. The plates were read at 570 nm. IC50 was calculated using a sigmoidal dose-response curve (GraphPad Prism version 5 for Windows (GraphPad Inc., USA)). Data are presented as the mean of the three individual experiments. The degree of selectivity of the active target compounds relative to WI38 normal cell lines is expressed as previously described. Selectivity index (SI) = IC50 of a pure compound in a normal cell line/IC50 of the same pure compound in a cancerous cell line.

[2] = tested on: A-2780 (ovarian) cancer cells; assay: In vitro cytotoxicity assessment (MTT), A-2780; assay type: cell-based, human; conditions: for IC50: Homo sapiens, A2780, 48 h, MTT, mean of three experiments ± SD, NA: not active; for SI (selectivity index) A-2780: IC50 in WI38 normal cells / IC50 in A-2780
Description: as §1, §2

WI38 normal cells = assay: In vitro cytotoxicity assessment (MTT), normal cells; assay type: cell-based; conditions: WI-38; normal human cell line WI38, MTT
Description: as §2, with “Then the cells were treated at different concentrations (2.5–10 μM) with 5-FU as a positive control or the synthesized compounds for 48h.” left out

[3] = tested on: HT-29 (colon) cancer cells; assay: In vitro cytotoxicity assessment (MTT), HT-29; assay type: cell-based, human; conditions: for IC50: Homo sapiens, HT-29, 48 h, MTT, mean of three experiments ± SD, NA: not active; for SI (selectivity index) HT-29: IC50 in WI38 normal cells / IC50 in HT-29
Description: as §1, §2

[4] = tested on: HepG2 (liver) cancer cells; assay: In vitro cytotoxicity assessment (MTT), HepG2; assay type: cell-based, human; conditions: for IC50: Homo sapiens, HepG2, 48 h, MTT, mean of three experiments ± SD, NA: not active; for SI (selectivity index) HepG2: IC50 in WI38 normal cells / IC50 in HepG2
Description: as §1, §2

CDK2/CyclinA2 = biological target: T1, CDK2/CyclinA2 (Homo sapiens, UniProt P24941); assay: In vitro inhibitory screening of CDK2 (CDK2 Assay kit, Kinase-Glo MAX); assay type: biochemical; conditions: CDK2/CyclinA2, 30 °C 45 min; mean of three experiments ± SD; read-out: CDK2 Protein Kinase (IC50 in µM)
T1 construct: purchased #79599
Description: To measure CDK2/CyclinA2 activity, the CDK2 Assay kit #79599 was used for screening and profiling applications, together with Kinase-Glo® MAX (Promega#V6071) as a detection reagent. […] Briefly, 25 μL of the master mixture containing 6 μL Kinase assay buffer + 1 μL ATP + 5 μL CDK substrate peptide + 13 μL distilled water were added to each well. Later, 5 µL of inhibitor buffer only or diluted compound were added to the blank or test inhibitor wells, respectively. Then, 20μL of Kinase assay buffer was added to blank wells. The reaction was started by the addition of 20 μL of CDK2/CyclinA2 enzyme to the wells of the test inhibitor. The final volume was 50 µL in all of the reactions. Incubation was at 30 °C for 45 min for all the enzymatic reactions. Finally, to each well, 50 μL of Kinase-Glo MAX reagent was added. The plate was incubated for 15 min at room temperature then, the luminescence signal was measured using a Bio Tek Synergy 2 microplate reader. Experiments were performed in triplicates.

[5] = tested on: A-2780, HT-29, MCF-7, and HepG2 cancer cell lines; assay: Cytotoxic screening, statements for the whole panel of four cancer cell lines; assay type: cell-based, human; conditions: A-2780, HT-29, MCF-7, HepG2
Description: as §1, §2

| melting point | IC50 (CDK2/CyclinA2) | Compound | IC50 [1] | SI (selectivity index) MCF-7 [1] | IC50 [2] | SI (selectivity index) A-2780 [2] | IC50 (WI38 normal cells) | IC50 [3] | SI (selectivity index) HT-29 [3] | IC50 [4] | SI (selectivity index) HepG2 [4] | anticancer activity against the four cancer cell lines, in words [5] |
| --- | --- | --- | --- | --- | --- | --- | --- | --- | --- | --- | --- | --- |
| 315 to 317 °C | 6.41 ± 0.377 µM | Cc1[nH]c(=S)[nH]c(=O)c1S(=O)(=O)Nc1cccc(C(=O)C=Cc2ccc(Cl)cc2)c1 [Compound 7a, N-(3-(3-(4-Chlorophenyl)acryloyl)phenyl)-6-Methyl-4-Oxo-2-Thioxo-1,2,3,4-Tetrahydro Pyrimidine-5-Sulfonamide] | 6.9 ± 1.33 µM | 12.04 | 12.5 ± 2.1 µM | 6.66 | 83.1 ± 2 µM | 4.2 ± 0.88 µM | 19.78 | 10.9 ± 1.72 µM | 7.61 | – |
| 348 to 350 °C | – | Cc1[nH]c(=S)[nH]c(=O)c1S(=O)(=O)C1Cc2ccccc2C1=O (centres unmarked) [Compound 5, 6-Methyl-5-(1-Oxo-2,3-Dihydro-1H-Inden-2-Ylsulfonyl)-2-Thioxo-2,3-Dihydropyrimidin-4(1H)-One] | 17.3 ± 2.35 µM | – | – | – | – | 11.7 ± 1.96 µM | – | – | – | low or no anticancer activity |
| 339 to 341 °C | – | Cc1[nH]c(=S)[nH]c(=O)c1S(=O)(=O)NNC(=O)c1ccc(Br)cc1 [Compound 9c, N′-(4-Bromobenzoyl)-6-Methyl-4-Oxo-2-Thioxo-1,2,3,4-Tetrahydropyrimidine-5-Sulfono-Hydrazide] | 11.9 ± 2 µM | – | 8.16 ± 2.07 µM | – | – | 6.99 ± 1.35 µM | – | 9.44 ± 1.03 µM | – | – |
| – | 0.605 ± 0.023 µM | Cc1[nH]c(=S)[nH]c(=O)c1S(=O)(=O)Nc1ccc([N+](=O)[O-])cc1 [Compound 6f, 6-Methyl-N-(4-Nitrophenyl)-4-Oxo-2-Thioxo-1,2,3,4-Tetrahydropyrimidine-5-Sulfonamide] | 2.34 ± 0.61 µM | – | 10.2 ± 0.97 µM | – | 65.7 ± 2.28 µM | 6.4 ± 1.24 µM | – | 6.1 ± 0.48 µM | – | – |
| 334 to 336 °C | – | Cc1[nH]c(=S)[nH]c(=O)c1S(=O)(=O)NNC(=O)c1ccccc1Cl [Compound 9b, N′-(2-Chlorobenzoyl)-6-Methyl-4-Oxo-2-Thioxo-1,2,3,4-Tetrahydropyrimidine-5-Sulfono-Hydrazide] | 13.6 ± 2.65 µM | – | 7.95 ± 1.75 µM | – | – | 10.6 ± 1.25 µM | – | 13.3 ± 1.5 µM | – | – |
| 316 to 318 °C | – | Cc1[nH]c(=S)[nH]c(=O)c1S(=O)(=O)Nc1ccccc1 [Compound 6a, 6-Methyl-4-Oxo-N-Phenyl-2-Thioxo-1,2,3,4-Tetrahydropyrimidine-5-Sulfonamide] | 16.8 ± 2.11 µM | – | 17.7 ± 2.18 µM | – | – | 11.3 ± 2.08 µM | – | 15.6 ± 1.52 µM | – | – |
| 318 to 320 °C | 0.567 ± 0.021 µM | CC(=O)c1cccc(NS(=O)(=O)c2c(C)[nH]c(=S)[nH]c2=O)c1 [Compound 6d, N-(3-Acetylphenyl)-6-Methyl-4-Oxo-2-Thioxo-1,2,3,4-Tetrahydropyrimidine-5-Sulfonamide] | 2.3 ± 0.62 µM | 32.33 | 11.7 ± 1.99 µM | 6.37 | 74.4 ± 4.74 µM | 6.13 ± 0.53 µM | 12.13 | 5.24 ± 1.05 µM | – | – |
| 335 to 337 °C | 8.2 ± 0.486 µM | Cc1[nH]c(=S)[nH]c(=O)c1S(=O)(=O)Nc1cccc(C(=O)C=Cc2ccc(Br)cc2)c1 [Compound 7c, N-(3-(3-(4-Bromophenyl)acryloyl)phenyl)-6-Methyl-4-Oxo-2-Thioxo-1,2,3,4-Tetrahydro Pyrimidine-5-Sulfonamide] | 11.7 ± 2.07 µM | 5.38 | 6.1 ± 0.54 µM | 10.28 | 62.7 ± 1.93 µM | 8.14 ± 1.95 µM | 7.71 | 8.25 ± 0.68 µM | 7.60 | – |

Continued, compound first:

| Compound | melting point | IC50 (CDK2/CyclinA2) | IC50 [1] | SI (selectivity index) MCF-7 [1] | IC50 [2] | SI (selectivity index) A-2780 [2] | IC50 (WI38 normal cells) | IC50 [3] | SI (selectivity index) HT-29 [3] | IC50 [4] | SI (selectivity index) HepG2 [4] | anticancer activity against the four cancer cell lines, in words [5] |
| --- | --- | --- | --- | --- | --- | --- | --- | --- | --- | --- | --- | --- |
| Cc1ccc(NS(=O)(=O)c2c(C)[nH]c(=S)[nH]c2=O)cc1 [Compound 6c, 6-Methyl-4-Oxo-2-Thioxo-N-(P-Tolyl)-1,2,3,4-Tetrahydropyrimidine-5-Sulfonamide] | 313 to 315 °C | – | 6.36 ± 1.2 µM | 13.27 | 14 ± 1.05 µM | 6.02 | 84.4 ± 1.7 µM | 5.46 ± 1.66 µM | 15.46 | 6.71 ± 0.99 µM | 12.58 | – |
| Cc1[nH]c(=S)[nH]c(=O)c1S(=O)(=O)NNc1ccccc1 [Compound 8b, 6-Methyl-4-Oxo-N′-Phenyl-2-Thioxo-1,2,3,4-Tetrahydropyrimidine-5-Sulfonohydrazide] | – | – | 9.89 ± 1.8 µM | – | 16.4 ± 1.55 µM | – | – | 8.16 ± 2.07 µM | – | 13.1 ± 2.04 µM | – | – |
| Cc1[nH]c(=S)[nH]c(=O)c1S(=O)(=O)NNc1ccc([N+](=O)[O-])cc1[N+](=O)[O-] [Compound 8c, N′-(2,4-Dinitrophenyl)-6-Methyl-4-Oxo-2-Thioxo-1,2,3,4-Tetrahydropyrimidine-5-Sulfono Hydrazide] | 321 to 323 °C | – | 5.54 ± 1.58 µM | – | 8.57 ± 1.79 µM | – | – | 10.1 ± 1.54 µM | – | 14.8 ± 1.45 µM | – | – |
| Cc1[nH]c(=S)[nH]c(=O)c1S(=O)(=O)Nc1ccc(Br)cc1 [Compound 6g, N-(4-Bromophenyl)-6-Methyl-4-Oxo-2-Thioxo-1,2,3,4-Tetrahydropyrimidine-5-Sulfonamide] | 333 to 335 °C | 0.485 ± 0.033 µM | 7.31 ± 1.21 µM | 9.65 | 1.62 ± 0.35 µM | 43.58 | 70.6 ± 2.14 µM | 5.05 ± 0.83 µM | 13.98 | 2.47 ± 0.51 µM | – | – |
| O=c1[nH]cc(F)c(=O)[nH]1 [Compound 5-FU, 5-fluorouracil, reference compound] | – | – | 5.15 ± 1.14 µM | – | 3.92 ± 1 µM | – | – | 4.69 ± 1.13 µM | – | 38.4 ± 2.4 µM | – | – |
| Cc1[nH]c(=S)[nH]c(=O)c1S(=O)(=O)NNC(N)=S [Compound 8a, [(6-Methyl-4-Oxo-2-Thioxo-1,2,3,4-Tetrahydropyrimidin-5-Yl) Sulfonylamino] Thiourea] | 343 to 345 °C | – | 13.3 ± 3 µM | – | 16.8 ± 1.82 µM | – | – | 8.02 ± 1.99 µM | – | 18 ± 1.95 µM | – | – |
| COc1ccc(NS(=O)(=O)c2c(C)[nH]c(=S)[nH]c2=O)cc1 [Compound 6b, N-(4-Methoxyphenyl)-6-Methyl-4-Oxo-2-Thioxo-1,2,3,4-Tetrahydropyrimidine-5-Sulfon-Amide] | 320 to 322 °C | 0.447 ± 0.031 µM | 2.29 ± 0.63 µM | 31.29 | 2.56 ± 0.45 µM | 28.00 | 71.7 ± 2 µM | 5.1 ± 1.32 µM | 14.05 | 2.23 ± 0.55 µM | 32.13 | – |
| Cc1[nH]c(=S)[nH]c(=O)c1S(=O)(=O)NNC(=O)c1ccc(Cl)cc1 [Compound 9a, N′-(4-Chlorobenzoyl)-6-Methyl-4-Oxo-2-Thioxo-1,2,3,4-Tetrahydropyrimidine-5-Sulfono-Hydrazide] | 327 to 329 °C | – | 10.8 ± 1.53 µM | – | 11.9 ± 3.47 µM | – | – | 6.64 ± 1.19 µM | – | 11 ± 1.23 µM | – | – |
| Cc1[nH]c(=S)[nH]c(=O)c1S(=O)(=O)Nc1cccc(C(=O)C=Cc2ccc([N+](=O)[O-])cc2)c1 [Compound 7b, 6-Methyl-N-(3-(3-(4-Nitrophenyl)acryloyl)phenyl)-4-Oxo-2-Thioxo-1,2,3,4-Tetrahydropyrimidine-5-Sulfonamide] | 318 to 320 °C | 0.81 ± 0.026 µM | 6.11 ± 0.5 µM | 13.08 | 11.1 ± 1.41 µM | 7.22 | 79.9 ± 2.56 µM | 2.84 ± 0.78 µM | 28.14 | 12.4 ± 1.82 µM | 6.43 | – |
